Measurements published in patent publication US12673052B2, “Combinations for the treatment of cancer” (Exelixis, Inc., priority 2020, dated 2026).
Values joined by “and” are separate entries in the source; they are usually repeats but may differ in a detail not shown here. Equal values may be shown once. Read-outs that look alike come from different tables or passages of the source.

What was measured:
[1] = tested on: MC38 tumor; assay: Tumor microvessels by CD31 staining in MC38 tumor-bearing animals; assay type: in vivo, murine
Procedure: MC38 tumor-bearing animals were treated with a range of Compound 1 doses (PO, qd; 3 mg/kg, 10 mg/kg, 30 mg/kg Compound 1) for 5 days. Tumors were analyzed for the presence of tumor microvessels by CD31 staining. FIG. 1A and FIG. 1B compare the tumor microvessels after administration of different doses of Compared 1 with vehicle.

[2] = Single-dose plasma PK, IV and oral (PEG 400:EtOH:RO water); assay type: in vivo, dogs
Procedure: (§1) Plasma PK of Compound 1 was characterized in rats and beagle dogs. Toxicokinetic (TK) evaluations of oral Compound 1 were evaluated in repeat-dose studies in rats and dogs. Plasma protein binding was determined in mouse, rat, dog, monkey, and human plasma in vitro. Biotransformation and metabolite profiling of Compound 1 were investigated in vitro using mouse, rat, dog, monkey, and human liver microsomal fractions and hepatocytes and in vivo in rats and dogs. P-glycoprotein (P-gp) and breast cancer resistance protein (BCRP) transporter interaction studies, in vitro experiments evaluating cytochrome P450 (CYP) induction and inhibition by Compound 1, and CYP and glucuronosyltransferase (UGT) substrate specificity studies of Compound 1 were also performed.
The PK and TK of Compound 1 were assessed in rats and dogs after intravenous (IV; only single dose PK) and oral (PO) administration of Compound 1 in formulations prepared in polyethylene glycol 400 (PEG 400): ethanol (EtOH): reverse osmosis water (RO Water) (45:5:50 v/v/v).
Median time to maximum plasma concentration (Tmax) occurred at approximately 2-3 hours in rats and dogs.
(§2) The mean plasma t1/2, z values were approximately 9 hours in rats and 4 hours in dogs. Interspecies scaling based on body weight to predict PK parameters in humans could not be performed because dogs (larger species) cleared Compound 1 faster than rats (smaller species). Therefore, the human PK was projected based on one species (rat). […] This apparent clearance value (CL/F) was used to predict steady-state exposure (AUC and average plasma concentration [Cavg]) in humans for the proposed first-in-human (FIH) starting dose for Study Compound 1-001.

[3] = In vitro plasma protein binding; assay type: in vitro ADME, human
Procedure: as §1
Compound 1 (10 μM) was 97.2 and 97.5% protein bound in monkey and human plasma, respectively.

[4] = Permeability in Caco-2 cells; assay type: in vitro ADME; settings: human, highly permeable, read-out: apparent permeability coefficient (Papp)
[5] = tested on: CYP1A2; assay: Cytochrome P450 induction (mRNA levels) in fresh primary human hepatocytes; assay type: in vitro ADME
[6] = Liver microsomal stability assay; assay type: in vitro ADME, rat; settings: liver microsomes
Procedure: (§3) In the liver microsomal stability assay, CLint was 0.601 mL/min/g liver in mouse, 0.563 mL/min/g liver in rat, 0.315 mL/min/g liver in dog, 0.734 mL/min/g liver in monkey, and 0.639 mL/min/g liver in human. In the hepatocyte stability assay, Compound 1 CLint was 0.373 mL/min/g liver in mouse, 0.285 mL/min/g liver in rat, 1.08 mL/min/g liver in dog, 0.533 mL/min/g liver in monkey, and 0.317 mL/min/g liver in human.

[7] = Liver microsomal stability assay; assay type: in vitro ADME, monkey; settings: liver microsomes
Procedure: as §3

[8] = Hepatocyte stability assay; assay type: in vitro ADME, rat; settings: hepatocytes
Procedure: as §2, §3

[9] = tested on: mammalian cell; assay: In vitro mammalian cell genotoxicity bioassay; assay type: cell-based
Procedure: The nonclinical toxicity of Compound 1 was characterized in dose range-finding 7-day and definitive 28-day repeat-dose studies in rats and dogs, and in in vitro bacterial and mammalian genotoxicity bioassays. Compound 1 was also evaluated in definitive neurobehavioral, respiratory and cardiovascular safety pharmacology studies.
Compound 1 was negative in in vitro bacterial and mammalian cell genotoxicity bioassays.

[10] = tested on: primary human macrophages; assay: Macrophage re-polarization: primary CD14+ monocytes cultured in M2 polarizing conditions; assay type: cell-based; settings: donor (A, H, L, D, B), Donor A and B n = 1
Procedure: The TAM RTKs play an important role in balancing the functions of M1 and M2 macrophage subsets. Compound 1 was tested for inhibition against primary CD14+ monocytes cultured in M2 polarizing conditions. A dose dependent polarization of the monocytes to pro-inflammatory M1 macrophages across cells from all tested donors was observed (Table 4).

[11] = molecular target: MET (Homo sapiens, UniProt P08581); assay: In vivo target modulation: MET phosphorylation by Western blot in NCI-H441 xenografts; design: endogenous in cells; host or cells: NCI-H441 human tumour xenografts in athymic nude mice; species or system athymic nude mice; settings: for Compound 1 Plasma Exposure: qd × 14, 4 hours after last dose on Day 14
Chain of MET (P08581 25-1390): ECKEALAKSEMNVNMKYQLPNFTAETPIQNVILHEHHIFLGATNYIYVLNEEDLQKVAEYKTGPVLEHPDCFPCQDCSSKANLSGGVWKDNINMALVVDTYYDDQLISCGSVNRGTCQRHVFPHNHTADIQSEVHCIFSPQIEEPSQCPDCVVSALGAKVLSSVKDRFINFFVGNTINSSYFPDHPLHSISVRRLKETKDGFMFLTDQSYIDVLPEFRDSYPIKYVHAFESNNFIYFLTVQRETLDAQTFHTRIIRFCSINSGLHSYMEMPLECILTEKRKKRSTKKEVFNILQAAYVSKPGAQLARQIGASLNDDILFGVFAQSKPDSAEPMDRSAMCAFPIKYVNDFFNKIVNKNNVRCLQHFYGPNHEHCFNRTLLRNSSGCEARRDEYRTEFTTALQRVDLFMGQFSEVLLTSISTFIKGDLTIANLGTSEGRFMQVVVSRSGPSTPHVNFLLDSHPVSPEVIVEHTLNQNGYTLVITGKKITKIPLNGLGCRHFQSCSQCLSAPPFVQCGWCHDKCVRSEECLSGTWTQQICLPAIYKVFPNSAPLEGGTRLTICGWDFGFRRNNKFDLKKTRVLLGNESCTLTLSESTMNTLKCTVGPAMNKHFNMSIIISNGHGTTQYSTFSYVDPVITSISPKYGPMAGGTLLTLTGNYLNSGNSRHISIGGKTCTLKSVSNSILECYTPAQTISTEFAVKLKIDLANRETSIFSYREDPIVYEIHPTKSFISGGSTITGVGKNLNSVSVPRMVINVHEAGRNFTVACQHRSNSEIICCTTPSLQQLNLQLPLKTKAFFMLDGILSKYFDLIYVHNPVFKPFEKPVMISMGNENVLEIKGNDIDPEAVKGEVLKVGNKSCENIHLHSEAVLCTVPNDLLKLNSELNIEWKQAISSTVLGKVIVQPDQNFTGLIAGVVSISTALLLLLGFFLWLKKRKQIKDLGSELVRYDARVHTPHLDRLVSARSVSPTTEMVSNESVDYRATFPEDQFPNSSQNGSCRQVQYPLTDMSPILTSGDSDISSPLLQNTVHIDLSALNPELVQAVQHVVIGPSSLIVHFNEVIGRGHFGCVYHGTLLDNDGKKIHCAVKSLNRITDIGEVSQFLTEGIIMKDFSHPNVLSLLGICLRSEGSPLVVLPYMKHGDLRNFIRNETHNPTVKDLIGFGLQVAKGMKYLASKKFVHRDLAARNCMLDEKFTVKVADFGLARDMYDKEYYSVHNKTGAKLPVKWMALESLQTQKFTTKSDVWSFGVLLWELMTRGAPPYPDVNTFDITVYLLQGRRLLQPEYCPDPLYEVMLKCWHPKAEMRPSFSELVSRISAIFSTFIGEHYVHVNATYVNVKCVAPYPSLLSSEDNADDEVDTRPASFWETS
Procedure: Three human tumor cell lines, NCI-H441, MDA-MB-231, and SNU-5, were selected for use in tumor xenograft studies using athymic nude, NSG and CB.17 SCID mice, respectively. Pharmacodynamic modulation of MET phosphorylation was also measured in the NCI-H441 and SNU-5 xenografts. Tumor-bearing mice were orally dosed once-daily for 14 days (qd×14), and the tumors were resected and processed for MET phosphorylation analysis by Western blot. […]

[12] = NCI-H441, mouse, po, read-out: p-MET Inhibition %

With `CNC(=O)c1cc2c(Oc3ccc(NC(=O)C4(C(=O)Nc5ccc(F)cc5)CC4)cc3)ccnc2cc1OC` [Compound 1, 1-N′-(4-Fluorophenvl)-1-N-[4-[7-methoxy-6-(methylcarbamovl)quinolin-4-yl]oxyphenyl]cyclopropane-1,1-dicarboxamide] the “average vessel number (CD31 staining)” value ([1]; 30 mg/kg PO qd 5 days, vehicle 26.9) was 17.6, the “presence of tumor microvessels” value ([1]; 3, 10, 30 mg/kg PO qd 5 days) was “Dose-dependent decreases” and the bioavailability ([2]; beagle, dog, plasma, po, 0.2-0.6 mg/kg, read-out: Oral absolute bioavailability) was 47 to 70%. For the same compound, the half-life ([2]; beagle, dog, plasma, after oral administration, read-out: terminal phase half-life (t1/2, z)) was 1 to 3 h, the Tmax ([2]; beagle, dog, plasma, single oral dose, read-out: Median time to maximum plasma concentration (Tmax)) was 2 to 3 h and the clearance ([2]; beagle, dog, plasma, single-dose IV 0.2-0.6 mg/kg, read-out: mean plasma clearance (CL) (converted)) was 6.33 mL/min/kg. The half-life ([2]; beagle, dog, plasma, single-dose IV, read-out: mean plasma t1/2, z (converted)) was ~4 h, the Vd ([2]; beagle, dog, plasma, single-dose IV, read-out: mean volume of distribution at steady-state (Vss)) was 1.98 L/kg and the “plasma clearance in dogs relative to rats” value ([2]; higher in dogs than in rats) was “approximately 16 fold”. For the same compound, the “increase of exposure (Cmax and AUC0-inf) with dose” value ([2]; single oral doses 0.2-0.6 mg/kg) was “approximately dose proportionally”, the protein bound ([3]; 10 μM) was 97.5% and the fraction unbound ([3]; human, plasma, 0.2 and 1 μM) was < 0.01. For the same compound, the Papp [4] was 3.83 ×10⁻⁶ cm/s, the EC50 ([5]; human, fresh primary human hepatocytes, mRNA induction, read-out: half-maximal effective concentration (EC50)) was 930 nM and the “maximal induction effect (Emax)” value ([5]; mRNA, 0.1-100 μM) was 5 fold. The CLint [6] was 0.563 mL/min/g liver, the CLint [7] was 0.734 mL/min/g liver and the CLint [8] was 0.285 mL/min/g liver. For the same compound, the genotoxicity [9] was “negative”, the “M1/M2 Ratio, Fold Change Relative to DMSO (n = 2)” value ([10]; 2 uM) was 1.3 ± 2.6 and 1.7 (2×) and 1.0 ± 2.6 and 2.2 ± 1.1 and the “M1/M2 Ratio, Fold Change Relative to DMSO (n = 2)” value ([10]; 4 uM) was 3.6 ± 1.2 and 4.1 and 3.3 and 3.7 ± 1.2 and 3.4 ± 1.4. For the same compound, the “M1/M2 Ratio, Fold Change Relative to DMSO (n = 2)” value ([10]; 6 uM) was 3.5 ± 1.2 and 4.0 and 4.6 and 4.5 ± 1.0 and 4.6 ± 1.7, the “Compound 1 Plasma Exposure” value ([11]; 3 mg/kg) was 2.44 µM and the “Compound 1 Plasma Exposure” value ([11]; 10 mg/kg) was 9.71 µM. For the same compound, the inhibition at 3 mg/kg [11, 12] was 60% and the inhibition at 10 mg/kg [11, 12] was 82%.
